For 19 compounds, Kd results are on record in patent publication US20240116892A1, “HETEROCYCLIC AMIDE AND UREA COMPOUNDS AS JAK2 INHIBITORS” (Ajax Therapeutics, Inc., priority 2022, published 2024).

The target of the assay is JAK2 (JH1 domain-catalytic, Y1007F, Y1008F) kinase (Homo sapiens (Human), UniProt O60674, Y1007F/Y1008F). Description: JAK2 JH1 Domain Binding Assay. The settings on record: qPCR readout. As to the method:
JAK2 (JH1 domain-catalytic, Y1007F, Y1008F) kinase was expressed as N-terminal fusion to the DNA binding domain of NFkB in transiently transfected HEK293 cells and subsequently tagged with DNA for qPCR detection. Streptavidin-coated magnetic beads were treated with biotinylated small molecule ligands for 30 minutes at room temperature to generate affinity resins for kinase assays. The liganded beads were blocked with excess biotin and washed with blocking buffer (SeaBlock (Pierce), 1% BSA, 0.05% Tween 20, 1 mmol/L DTT) to remove unbound ligand and to reduce nonspecific phage binding. Binding reactions were assembled by combining kinases, liganded affinity beads, and test compounds in 1× binding buffer (1× PBS, 0.05% Tween 20, 0.1% BSA, 1 mmol/L DTT). Test compound was prepared as 111× stocks in 100% DMSO and directly diluted into the assay wells. All reactions were performed in polypropylene 384-well plates in a final volume of 0.02 mL. The assay plates were incubated at room temperature with shaking for 1 hour and the affinity beads were washed with wash buffer (1× PBS, 0.05% Tween 20). The beads were then re-suspended in elution buffer (1× PBS, 0.05% Tween 20, 0.5 μmol/L non-biotinylated affinity ligand) and incubated at room temperature with shaking for 30 minutes. The kinase concentration in the eluate was measured by qPCR.
(In qPCR the cycle at which signal appears reflects the starting amount.)

JAK2 (JH1 domain-catalytic, Y1007F, Y1008F) kinase, sequence (O60674 849-1124 Y1007F/Y1008F): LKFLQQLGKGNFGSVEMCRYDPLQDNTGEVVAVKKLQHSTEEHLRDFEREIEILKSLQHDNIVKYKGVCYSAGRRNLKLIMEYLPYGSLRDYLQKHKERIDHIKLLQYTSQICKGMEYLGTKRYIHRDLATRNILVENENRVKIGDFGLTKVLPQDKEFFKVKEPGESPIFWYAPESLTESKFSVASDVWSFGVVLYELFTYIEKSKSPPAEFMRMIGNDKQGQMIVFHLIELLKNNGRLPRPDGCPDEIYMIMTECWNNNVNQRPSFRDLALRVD

The compound `COCCOc1n[nH]c2ncc(N3CC[C@H](N(C)C(=O)Nc4cc(C(F)(F)F)cn(C)c4=O)[C@H](F)C3)cc12` [Example I-104-b, 1-((3R,4S)-3-fluoro-1-(3-(2-methoxyethoxy)-1H-pyrazolo[3,4-b]pyridin-5-yl)piperidin-4-yl)-1-methyl-3-(1-methyl-2-oxo-5-(trifluoromethyl)-1,2-dihydropyridin-3-yl)urea] yielded a Kd of less than 10 nM. `CN(C(=O)Nc1cc(C(F)(F)F)cn(C)c1=O)[C@@H]1CCN(c2cnc3[nH]c(=O)n(C)c3c2)C[C@@H]1F` [Example I-103-b, 1-((3S,4R)-3-fluoro-1-(1-methyl-2-oxo-2,3-dihydro-1H-imidazo[4,5-b]pyridin-6-yl)piperidin-4-yl)-1-methyl-3-(1-methyl-2-oxo-5-(trifluoromethyl)-1,2-dihydropyridin-3-yl)urea] came in with a Kd of less than 10 nM. In the case of `C[C@H]1CN(C(=O)Nc2cc(C(F)(F)F)cn(C)c2=O)C2(CCN(c3cnc4[nH]ccc4n3)CC2)C1` (single isomer, unassigned) [Example I-53-b], the Kd lay within 50 to 1000 nM. Then `CN(C(=O)Nc1cc(C(F)(F)F)cn(C)c1=O)C12CCC(c3cnc4[nH]ncc4c3)(CC1)OC2` [Example I-168, 1-(1-(1H-pyrazolo[3,4-b]pyridin-5-yl)-2-oxabicyclo[2.2.2]octan-4-yl)-1-methyl-3-(1-methyl-2-oxo-5-(trifluoromethyl)-1,2-dihydropyridin-3-yl)urea], with less than 10 nM; and `COCc1cc2nc(N3CC[C@@H](N(C)C(=O)Nc4cc(C(F)(F)F)cn(C)c4=O)C[C@H]3C)cnc2[nH]1` [Example I-127-b, 1-((2R,4R)-1-(6-(methoxymethyl)-5H-pyrrolo[2,3-b]pyrazin-2-yl)-2-methylpiperidin-4-yl)-1-methyl-3-(1-methyl-2-oxo-5-(trifluoromethyl)-1,2-dihydropyridin-3-yl)urea], with 50 to 1000 nM.

Compound `CN(C(=O)Nc1cc(C(F)(F)F)cn(C)c1=O)[C@H]1CCN(c2cnc3[nH]c(=O)n(C)c3c2)C[C@H]1F` [Example I-103-a, 1-((3R,4S)-3-fluoro-1-(1-methyl-2-oxo-2,3-dihydro-1H-imidazo[4,5-b]pyridin-6-yl)piperidin-4-yl)-1-methyl-3-(1-methyl-2-oxo-5-(trifluoromethyl)-1,2-dihydropyridin-3-yl)urea] returned a Kd of less than 10 nM. Take `CC(=O)Nc1cnc(N2CC[C@H](N(C)C(=O)Nc3cc(C(F)(F)F)cn(C)c3=O)C[C@@H]2C)cn1` [Example I-134-a, N-(5-((2S,4S)-2-methyl-4-(1-methyl-3-(1-methyl-2-oxo-5-(trifluoromethyl)-1,2-dihydropyridin-3-yl)ureido)piperidin-1-yl)pyrazin-2-yl)acetamide]: the Kd was in the range of 50 to 1000 nM.

For the compound `CN(C(=O)Nc1cc(C(F)(F)F)cn(C)c1=O)C1CCN(c2cnccn2)CC1` [Example I-10, 1-methyl-3-(1-methyl-2-oxo-5-(trifluoromethyl)-1,2-dihydropyridin-3-yl)-1-(1-(pyrazin-2-yl)piperidin-4-yl)urea], the Kd lay in the range of 10 to 50 nM. Then `CN(C(=O)Nc1cc(C(F)(F)F)cn(C)c1=O)[C@H]1CCN(c2cnc3[nH]nc(OC4CCOCC4)c3c2)C[C@@H]1F` [Example I-114-a, 1-((3S,4S)-3-fluoro-1-(3-((tetrahydro-2H-pyran-4-yl)oxy)-1H-pyrazolo[3,4-b]pyridin-5-yl)piperidin-4-yl)-1-methyl-3-(1-methyl-2-oxo-5-(trifluoromethyl)-1,2-dihydropyridin-3-yl)urea], with less than 10 nM. In the case of `COCCOc1n[nH]c2ncc(N3CC[C@@H]4[C@@H](C3)OCCN4C(=O)Nc3cc(C(F)(F)F)cn(C)c3=O)cc12` [Example I-162-b, (4aR,8aR)-6-(3-(2-methoxyethoxy)-1H-pyrazolo[3,4-b]pyridin-5-yl)-N-(1-methyl-2-oxo-5-(trifluoromethyl)-1,2-dihydropyridin-3-yl)octahydro-1H-pyrido[3,4-b][1,4]oxazine-1-carboxamide], the Kd lay within 10 to 50 nM.

With `COc1c[nH]c2ncc(N3CC[C@@H]4[C@@H](C3)OCCN4C(=O)Nc3cc(C(F)(F)F)cn(C)c3=O)nc12` [Example I-163-b, (4aR,8aR)-6-(7-methoxy-5H-pyrrolo[2,3-b]pyrazin-2-yl)-N-(1-methyl-2-oxo-5-(trifluoromethyl)-1,2-dihydropyridin-3-yl)octahydro-1H-pyrido[3,4-b][1,4]oxazine-1-carboxamide], the Kd was in the range of 10 to 50 nM.

In turn, `CN(C(=O)Nc1cc(C(F)(F)F)cn(C)c1=O)C1CC2(C1)CN(c1cnc3[nH]cc(C#N)c3n1)C2` [Example I-75, 1-(2-(7-cyano-5H-pyrrolo[2,3-b]pyrazin-2-yl)-2-azaspiro[3.3]heptan-6-yl)-1-methyl-3-(1-methyl-2-oxo-5-(trifluoromethyl)-1,2-dihydropyridin-3-yl)urea] yielded a Kd of no less than 5000 nM.

Compound `CN(C(=O)Nc1cc(C(F)(F)F)cn(C)c1=O)[C@H]1[C@@H]2CC[C@H]1CN(c1cnc3[nH]ncc3c1)C2` [Example I-80, 1-(3-(1H-pyrazolo[3,4-b]pyridin-5-yl)-3-azabicyclo[3.2.1]octan-8-yl)-1-methyl-3-(1-methyl-2-oxo-5-(trifluoromethyl)-1,2-dihydropyridin-3-yl)urea] had an equilibrium dissociation constant (Kd) of 10 to 50 nM. To `CN(C(=O)Nc1cc(C(F)(F)F)cn(C)c1=O)[C@H]1CCN(c2cnc3[nH]cc(N4CCOCC4)c3n2)CC1(F)F` (single isomer, unassigned) [Example I-155-b] belongs 10 to 50 nM; to “(S)-1-methyl-3-(1-methyl-2-oxo-5-(trifluoromethyl)-1,2-dihydropyridin-3-yl)-1-(3-(3-((tetrahydrofuran-3-yl)oxy)-1H-pyrazolo[3,4-b]pyridin-5-yl)bicyclo[1.1.1]pentan-1-yl)urea and (R)-1-methyl-3-(1-methyl-2-oxo-5-(trifluoromethyl)-1,2-dihydropyridin-3-yl)-1-(3-(3-((tetrahydrofuran-3-yl)oxy)-1H-pyrazolo[3,4-b]pyridin-5-yl)bicyclo[1.1.1]pentan-1-yl)urea [Example I-166-a]”, 50 to 1000 nM. Regarding `CNc1n[nH]c2ncc(N3CCC(N(C)C(=O)Nc4cc(C(F)(F)F)cn(C)c4=O)CC3)cc12` [Example I-99, 1-methyl-3-(1-methyl-2-oxo-5-(trifluoromethyl)-1,2-dihydropyridin-3-yl)-1-(1-(3-(methylamino)-1H-pyrazolo[3,4-b]pyridin-5-yl)piperidin-4-yl)urea], the Kd is less than 10 nM. Then `CN(C(=O)Nc1cc(C(F)(F)F)cn(C)c1=O)[C@@H]1CCN(c2cnc3[nH]ccc3n2)C[C@@H]1F` [Example I-64-a, 1-((3S,4R)-3-fluoro-1-(5H-pyrrolo[2,3-b]pyrazin-2-yl)piperidin-4-yl)-1-methyl-3-(1-methyl-2-oxo-5-(trifluoromethyl)-1,2-dihydropyridin-3-yl)urea], with less than 10 nM. `Cn1cc(C(F)(F)F)cc(NC(=O)C2(C3CCN(c4cnccn4)CC3)CC2)c1=O` [Example I-5, N-(1-methyl-2-oxo-5-(trifluoromethyl)-1,2-dihydropyridin-3-yl)-1-(1-(pyrazin-2-yl)piperidin-4-yl)cyclopropane-1-carboxamide] gave a Kd of 50 to 1000 nM. In turn, `CN(C(=O)Nc1cc(C(F)(F)F)cn(C)c1=O)C1CCN(c2cnc3[nH]ncc3n2)CC1` [Example I-68, 1-(1-(1H-pyrazolo[3,4-b]pyrazin-5-yl)piperidin-4-yl)-1-methyl-3-(1-methyl-2-oxo-5-(trifluoromethyl)-1,2-dihydropyridin-3-yl)urea] showed a Kd of less than 10 nM.

By Kd is commonly meant the concentration at which binding is half-saturated. Read a low Kd as a tighter complex.
